Data taken from patent publication US20100216779A1 (GLAXOSMITHKLINE LLC, priority 2007, published 2010).

Test system: various cell lines of different tumor origins
Assay: Inhibition of cell proliferation, InCell Analyzer assay
Assay type: cell-based
Details: Homo sapiens
Procedure: C. Inhibition of Cell Proliferation
For InCell Analyser assay, various cell lines of different tumor origins were grown to 70-80% confluency in appropriate culture media containing 10% fetal bovine serum at 37° C. in a 5% CO2 incubator. On day-1, cells were seeded at 2 densities in 384-well plates and incubated at 37° C. overnight. Stock compound plates were prepared in advance which contained dimethyl sulfoxide (DMSO) alone and a 9-point half-log decreasing dose range of the compound of Example 22 in DMSO. The compound plates were stored at −80° C. and each plate was only thawed once and used. On day 0, the main assay plates received compound or DMSO via a sonic delivery system (ECHO). The highest final concentration of compound of the dose range in the culture plates was 10 uM. These plates were cultured at 37° C. for 3 days. […] On day 3, the compound treated plates were stained and fixed to measure proliferation, apoptosis, and mitotic index using an InCell1000 analyser. A nuclear stain was used to identify cells in the wells. By counting the number of nuclei, the proliferation index of compound treated groups were calculated as a percentage relative to the DMSO control, which was set to 100%. The IC50 values were calculated using model 205 in ExcelFit.

**Q.** What does the source list for `COc1cc(N2CCC(N3CCCCC3)CC2)ccc1Nc1nccc(-c2c(-c3cccc(C(=O)Nc4c(F)cccc4F)c3)nc3ccccn23)n1` [Example 22, 3-[3-(2-{[4-(1,4′-bipiperidin-1′-yl)-2-(methyloxy)phenyl]amino}-4-pyrimidinyl)imidazo[1,2-a]pyridin-2-yl]-N-(2,6-difluorophenyl)benzamide]?
**A.** IC50 (NCI-H292, NCI-H292, Lung): 1 to 5 µM; IC50 (NCI-H295R, Cervix): > 5 µM; IC50 (NCI-H358, NCI-H358, Lung): < 1 µM; IC50 (NCI-H460, NCI-H460, Lung): 1 to 5 µM; IC50 (NCI-H520, NCI-H520, Lung): 1 to 5 µM; IC50 (NCI-H522, NCI-H522, Lung): 1 to 5 µM; IC50 (NCI-H526, NCI-H526, Lung): < 1 µM; IC50 (NCI-H596, NCI-H596, Lung): > 5 µM; IC50 (NCI-H630, NCI-H630, Rectum): < 1 µM; IC50 (NCI-H661, NCI-H661, Lung): 1 to 5 µM; IC50 (NCI-H716, NCI-H716, Colon): < 1 µM; IC50 (NCI-H727, NCI-H727, Lung): 1 to 5 µM; IC50 (NCI-H747, NCI-H747, Colon): 1 to 5 µM; IC50 (NCI-H1395, NCI-H1395, Lung): > 5 µM; IC50 (NCI-H2087, NCI-H2087, Lung): > 5 µM; IC50 (NCI-N87, NCI-N87, Stomach): < 1 µM; IC50 (NCI/ADR-RES, Breast): 1 to 5 µM; IC50 (OV-90, OV-90, Ovary): > 5 µM; IC50 (OVCAR-3, OVCAR-3, Ovary): > 5 µM; IC50 (OVCAR-4, OVCAR-4, Ovary): 1 to 5 µM; IC50 (OVCAR-5, OVCAR-5, Ovary): < 1 µM; IC50 (OVCAR-8, OVCAR-8, Ovary): 1 to 5 µM; IC50 (RL95-2, RL95-2, Uterus): 1 to 5 µM; IC50 (RPMI-2650, RPMI2650, H&N): 1 to 5 µM; IC50 (RPMI-6666, RPMI6666, lymphoma - Hodgkin): 1 to 5 µM; IC50 (RPMI-8226, RPMI8226, Myeloma): < 1 µM; IC50 (RWPE-1, RWPE-1, Prostate): < 1 µM; IC50 (RXF 393, RXF393, Kidney): 1 to 5 µM; IC50 (Raji, lymphoma - Burkitt): 1 to 5 µM; IC50 (SAOS-2, SaOS-2, Sarcoma): < 1 µM; IC50 (SCC-4, SCC-4, H&N): 1 to 5 µM; IC50 (SCC-9, SCC-9, H&N): > 5 µM; IC50 (SCC-15, SCC-15, H&N): > 5 µM; IC50 (SCC-25, SCC-25, H&N): < 1 µM; IC50 (SCaBER, Bladder): 1 to 5 µM; IC50 (SF-268, SF-268, glioma): 1 to 5 µM; IC50 (SF-295, SF-295, glioma): > 5 µM; IC50 (SF-539, SF-539, glioma): > 5 µM; IC50 (SHP77, SHP-77, Lung): 1 to 5 µM; IC50 (SJRH30, SJRH30, Sarcoma - rhabdomyosarcoma): < 1 µM; IC50 (SK-BR-3, SK-BR-3, Breast): 1 to 5 µM; IC50 (SK-LMS-1, SK-LM-S1, Sarcoma): 1 to 5 µM; IC50 (SK-MEL3, SK-MEL-3, Skin): > 5 µM; IC50 (SK-MEL-1, SK-MEL-1, Skin): > 5 µM; IC50 (SK-MEL-28, SK-MEL-28, Skin): 1 to 5 µM; IC50 (SK-N-AS, neuroblastoma): 1 to 5 µM; IC50 (SK-N-DZ, neuroblastoma): 1 to 5 µM; IC50 (SK-N-FI, neuroblastoma): < 1 µM; IC50 (SK-NEP-1, SK-NEP-1, Kidney): > 5 µM; IC50 (SK-OV-3, SK-OV-3, Ovary): > 5 µM; IC50 (SK-UT-1, SK-UT-1, Sarcoma): 1 to 5 µM; IC50 (SN12C, Kidney): 1 to 5 µM; IC50 (SNB-19, SNB-19, glioma): > 5 µM; IC50 (SNB-75, SNB-75, glioma): > 5 µM; IC50 (SNU1, SNU-1, Stomach): > 5 µM; IC50 (SNU-5, SNU-5, Stomach): > 5 µM; IC50 (SNU-16, SNU-16, Stomach): > 5 µM; IC50 (SNU-182, SNU-182, Liver): 1 to 5 µM; IC50 (SNU-387, SNU-387, Liver): 1 to 5 µM; IC50 (SNU-398, SNU-398, Liver): 1 to 5 µM; IC50 (SNU-423, SNU-423, Liver): 1 to 5 µM; IC50 (SNU-449, SNU-449, Liver): > 5 µM; IC50 (SNU-475, SNU-475, Liver): 1 to 5 µM; IC50 (ST486, ST486, lymphoma - Burkitt): 1 to 5 µM
